Marks after values point to notes of the source that are not given here.
Key:
[1] = system: mouse peritoneal macrophages; test: Phagocytosis test of chicken red blood cell; format: in vivo, Kunming mice; details: intragastric once per day for four weeks, 300 mg/kg (Mannatide 20 mg/kg); for Phagotrophic percentage (%, X ± SD): chicken red blood cells phagocytized by 100 macrophages
Method: Kunming mice were randomly divided into seven groups according to gender and body weight, with 12 mice in each group. As the dose design, all groups received one intragastric administration per day at a dose of 0.4 ml/20 g for successive four weeks. Mice were weighed for two times per week, to adjust the drug dosage. 30 minutes after final administration, each mouse in each group was injected intraperitoneally with 5% chicken erythrocyte suspension at a dose of 1.0 ml/mouse. Six hours after injection, animals were sacrificed by cervical dislocation, and received 2 ml physiological saline via peritoneal injection, while the abdomen of mice was gently massaged. Then, one pin hole was cut in the center of peritoneum, and washing water in peritoneal cavity was extracted, dropped on microscope slide, and cultured for 30 min in incubator at 37° C. The solution was washed with normal saline, fixed using methanol, and dyed by Giemsa staining. The numbers of chicken red blood cell phagocytized by 100 macrophages were observed under oil immersion lens. The phagotrophic percentage and the phagotrophic index were calculated according to the following formula, and results were shown in Table 15. [formula] [formula]

[2] = system: mouse macrophages; test: Carbon granules clearance test; format: in vivo, Kunming mice; details: once per day for four weeks, 300 mg/kg (Mannatide 20 mg/kg); for α value (X ± SD): corrected phagotrophic index; for K value (X ± SD): Indian ink via vena caudalis, blood at 1 and 5 min
Method: Kunming mice were randomly divided into seven groups according to gender and body weight, with 10 mice in each group. As the dose design in Table 14, all groups were administrated once per day at a dose of 0.4 ml/20 g for successive four weeks. Mice were weighed for two times per week, to adjust the drug dosage. One hour after final administration, each mouse in each group was injected with Indian ink [(1:4)0.1 ml·10 g^−1] via vena caudalis. […] After animals were sacrificed by cervical dislocation, liver and spleen were collected and weighed, to calculate the phagotrophic index K=(log OD^1−log OD2)/(t2−t1) and correct the phagotrophic index α=[body weight/(liver weight+spleen weight)]×K^1/3.

[3] = system: oxygen radicals; test: Metabolism of in vivo oxygen radicals (serum SOD activity, MDA content); design: species or system C57BL/6 mice; details: blood serum, intragastric once per day for four weeks, 300 mg/kg (IFNa-2b 300 0000 IU)
Method: Experimental methods: C57BL/6 mice were randomly divided to eight groups as body weight, with 10 mice in each group. According to the dose design in Table 14, all groups received one intragastric administration per day at a dose of 0.4 ml/20 g for successive four weeks. Mice were weighed for two times per week, to adjust the drug dosage. On the last day of experiment, blood samples were drawn from femoral artery of animals and centrifuged to collect blood serum. Using TBA colorimetric method and xanthine oxidase method, application of sample was performed according to procedures of kit instructions, and absorbance values were measured at wavelengths of 532 nm and 550 nm using UV2300 Ultraviolet spectrophotometer. MDA content and SOD activity were calculated, respectively.

| Compound | Phagotrophic index (X ± SD) [1] | Phagotrophic percentage (%, X ± SD) [1] | α value (X ± SD) [2] | K value (X ± SD) [2] | MDA(nmol/L) (x ± s) ([3]; TBA colorimetric method) | SOD(U/L) (x ± s) ([3]; xanthine oxidase method) |
| --- | --- | --- | --- | --- | --- | --- |
| O=C(/C=C/c1ccc(O)c(O)c1)O[C@@H]1C[C@](O)(C(=O)O)C[C@@H](O)[C@H]1O [Chologenic acid, Chlorogenic acid] | 0.52 ± 0.07 | 36.58 ± 4.50 % | 3.94 ± 1.05 | 0.019 ± 0.011 | 27.14 ± 3.41 | 218.73 ± 25.32 ^ U/L |
| Mannatide [reference compound] | 0.57 ± 0.05***^ΔΔ | 40.32 ± 2.25***^ΔΔ % | 4.43 ± 1.06 | 0.019 ± 0.013 |  |  |

Reference: US10238702B2, “Pharmaceutical composition, preparation method therefor and use thereof” (SICHUAN JIUZHANG BIOLOGICAL SCIENCE AND TECHNOLOGY CO., LTD, priority 2013, dated 2019)
